Common to all, as to assay type: in vivo, human
A short description of series [1]: Phase 2 dose range finding study in obese patients (CLIK066B2201). As to conditions: 30 mg QD; expected. The procedure: A dose of 30 mg QD is expected to achieve approximately 70% of maximum observed efficacy (using weight loss as a downstream marker for efficacy; CLIK066B2201). Licogliflozin is currently being tested as 30 mg and 150 mg QD monotherapy in NASH (CLIK066X2204). […] To minimize the risk of GI adverse effects of the SGLT1 inhibition in the gut such as diarrhea, licogliflozin will administered in the evening.

Series [2] is described as follows: Placebo-controlled, randomized Phase 2a study in patients with NASH (CLIK066X2204, NCT03205150), interim analysis. The note with it: for patients reporting diarrhea (most common adverse event): 12 weeks, placebo 38.9%. How it is done: Method: Patients with histologically confirmed NASH (F1-F3) or phenotypic NASH (BMI≥27 kg/m^2 in non-Asians or ≥23 kg/m^2 in Asians, ALT≥50 (males) or ≥35 (females) and type 2 diabetes (T2DM)) received daily oral licogliflozin at 150 mg, 30 mg or placebo in a 2:2:1 ratio for 12 weeks (NCT03205150). The primary endpoint is the effect on ALT level after 12 weeks of treatment. Secondary endpoints include improvement in body weight, liver fat content and AST, amongst others. The study size is 110 of which 77 have completed (placebo (n=18); licogliflozin 30 mg (n=25) and licogliflozin 150 mg (n=34)) and are included in the interim analysis.

Series [3] in a line: Randomized, double-blind, placebo controlled dose finding study in Japanese patients with obesity disease. How it is done:
This study was a randomized, double-blind, placebo controlled, dose finding study to evaluate the effect of licogliflozin (2.5, 10, 25 and 50 mg qd) in 126 Japanese patients with obesity disease. The primary objective was to examine the dose-response relationship of licogliflozin treatment in body weight reduction relative to placebo at 12 weeks. The secondary objectives included assessment of responder rates, change in parameters related to complications, visceral and subcutaneous fat area, and safety through 12 weeks of treatment.

Consider `CCc1ccc([C@@H]2O[C@H](CO)[C@@H](O)[C@H](O)[C@H]2O)cc1Cc1ccc2c(c1)OCCO2` [licogliflozin, (2S,3R,4R,5S,6R)-2-(3-((2,3-dihydrobenzo[b][1,4]dioxin-6-yl)methyl)-4-ethylphenyl)-6-(hydroxymethyl)tetrahydro-2H-pyran-3,4,5-triol], for which, in series [1], the “share of maximum observed efficacy (weight loss as downstream marker)” value was “approximately 70%”. For the same molecule, the “patients reporting diarrhea (most common adverse event)” value in series [2] (30 mg) is recorded as 40%; in series [2] (150 mg) it was 76.5%. In addition, the “reduction of ALT and liver fat (interim analysis)” value in series [2] (150 mg QD treatment group) is “promising reduction”. Besides, the “incidence of gastrointestinal events (mainly diarrhea)” value in series [2] (150 mg QD treatment group, interim analysis) is “significant incidence”. In addition, the safety and tolerability result in series [3] (2.5, 10, 25 and 50 mg qd over 12 weeks) was “safe and well tolerated”. Moreover, the ketoacidosis result in series [3] (2.5, 10, 25 and 50 mg qd, 12 weeks) is on record as “no ketoacidosis”. For the same molecule, the “patients who achieved reduction of ≥3% in body weight” value in series [3] (10, 25 and 50 mg qd dose groups, placebo 7.1%, p≤0.002 for all) is recorded as at least 50%.
